The values below come from article PMC6199744, “Development of Chemical Proteomics for the Folateome and Analysis of the Kinetoplastid Folateome” (ACS Infectious Diseases, 2018).

Assay type in all cases: binding
In experiment [1] the target is T1, HeLa cell extract proteins (Homo sapiens, UniProt P32929).
T1 construct: endogenous in cells; host or cells: HeLa cell extract

Experiment [2] addresses T2, HeLa cell extract proteins (Homo sapiens, UniProt P15121).
T2 construct: endogenous in cells; host or cells: HeLa cell extract

The target in experiment [3] is T3, HeLa cell extract proteins (Homo sapiens, UniProt Q16637).
T3 construct: endogenous in cells; host or cells: HeLa cell extract

For experiment [4], the target named is T4, HeLa cell extract proteins (Homo sapiens, UniProt Q9BVS4).
T4 construct: endogenous in cells; host or cells: HeLa cell extract

Experiment [5] deals with T5, HeLa cell extract proteins (Homo sapiens, UniProt P50502).
T5 construct: endogenous in cells; host or cells: HeLa cell extract
T5 sequence (P50502 1-369): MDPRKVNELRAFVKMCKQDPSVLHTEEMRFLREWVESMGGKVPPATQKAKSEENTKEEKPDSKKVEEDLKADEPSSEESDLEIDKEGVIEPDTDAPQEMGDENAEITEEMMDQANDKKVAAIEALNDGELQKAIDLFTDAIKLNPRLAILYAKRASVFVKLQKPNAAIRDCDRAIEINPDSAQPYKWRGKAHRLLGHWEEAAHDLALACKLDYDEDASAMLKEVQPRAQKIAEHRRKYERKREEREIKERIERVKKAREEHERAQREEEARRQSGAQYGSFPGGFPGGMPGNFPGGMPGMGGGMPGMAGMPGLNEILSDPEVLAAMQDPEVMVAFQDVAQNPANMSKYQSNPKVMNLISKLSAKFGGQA

The target of experiment [6] is T6, HeLa cell extract proteins (Homo sapiens, UniProt P49720).
T6 construct: endogenous in cells; host or cells: HeLa cell extract
T6 sequence (P49720 1-205): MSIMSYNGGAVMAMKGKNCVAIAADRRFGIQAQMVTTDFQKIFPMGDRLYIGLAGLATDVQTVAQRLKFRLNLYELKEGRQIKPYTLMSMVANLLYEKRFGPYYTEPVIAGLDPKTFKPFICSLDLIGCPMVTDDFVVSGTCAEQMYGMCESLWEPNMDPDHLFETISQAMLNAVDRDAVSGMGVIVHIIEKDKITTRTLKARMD

Experiment [7] addresses T7, HeLa cell extract proteins (Homo sapiens, UniProt Q9H2U2).
T7 construct: endogenous in cells; host or cells: HeLa cell extract
T7 sequence (Q9H2U2 33-334): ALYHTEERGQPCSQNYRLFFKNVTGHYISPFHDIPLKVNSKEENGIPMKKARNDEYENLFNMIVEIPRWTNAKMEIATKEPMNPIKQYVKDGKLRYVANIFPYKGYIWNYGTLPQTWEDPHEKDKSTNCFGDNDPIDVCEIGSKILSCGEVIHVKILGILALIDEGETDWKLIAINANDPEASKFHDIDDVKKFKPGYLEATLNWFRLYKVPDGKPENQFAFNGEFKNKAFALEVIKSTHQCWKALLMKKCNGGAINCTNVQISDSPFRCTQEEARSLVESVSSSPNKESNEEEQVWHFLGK

Experiment [8] addresses T8, HeLa cell extract proteins (Homo sapiens, UniProt Q15046).
T8 construct: endogenous in cells; host or cells: HeLa cell extract

Experiment [9] addresses T9, HeLa cell extract proteins (Homo sapiens, UniProt Q9BUJ2).
T9 construct: endogenous in cells; host or cells: HeLa cell extract
T9 sequence (Q9BUJ2 1-856): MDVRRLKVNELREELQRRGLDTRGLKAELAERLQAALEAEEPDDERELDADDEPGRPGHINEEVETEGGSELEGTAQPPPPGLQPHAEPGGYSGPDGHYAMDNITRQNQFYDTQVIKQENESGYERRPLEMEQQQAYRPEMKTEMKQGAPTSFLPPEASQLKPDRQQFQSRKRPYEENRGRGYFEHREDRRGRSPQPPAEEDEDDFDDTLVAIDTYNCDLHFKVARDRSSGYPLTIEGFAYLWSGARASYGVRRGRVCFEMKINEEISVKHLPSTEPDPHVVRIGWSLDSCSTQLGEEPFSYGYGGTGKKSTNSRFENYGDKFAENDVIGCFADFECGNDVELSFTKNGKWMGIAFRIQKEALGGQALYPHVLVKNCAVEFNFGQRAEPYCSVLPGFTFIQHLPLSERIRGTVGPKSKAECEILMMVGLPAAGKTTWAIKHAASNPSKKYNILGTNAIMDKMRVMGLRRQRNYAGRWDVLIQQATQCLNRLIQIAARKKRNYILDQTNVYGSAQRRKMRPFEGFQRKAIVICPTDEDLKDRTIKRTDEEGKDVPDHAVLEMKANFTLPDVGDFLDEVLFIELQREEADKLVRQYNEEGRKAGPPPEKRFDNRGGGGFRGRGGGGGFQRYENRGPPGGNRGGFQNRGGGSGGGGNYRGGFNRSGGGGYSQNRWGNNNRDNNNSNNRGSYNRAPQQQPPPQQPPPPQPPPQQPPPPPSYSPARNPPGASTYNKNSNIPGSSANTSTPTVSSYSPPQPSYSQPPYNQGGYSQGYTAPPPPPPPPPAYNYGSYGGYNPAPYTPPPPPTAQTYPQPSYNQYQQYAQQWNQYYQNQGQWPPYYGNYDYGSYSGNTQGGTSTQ

In experiment [10] the target is T10, HeLa cell extract proteins (Homo sapiens, UniProt Q00610).
T10 construct: endogenous in cells; host or cells: HeLa cell extract

The target of experiment [11] is T11, HeLa cell extract proteins (Homo sapiens, UniProt Q15436).
T11 construct: endogenous in cells; host or cells: HeLa cell extract

Experiment [12] addresses T12, HeLa cell extract proteins (Homo sapiens, UniProt Q14203).
T12 construct: endogenous in cells; host or cells: HeLa cell extract

Setting [13] is: HeLa, protein ST13 (HSC70-INTERACTING PROTEIN.).
[14] abbreviates: HeLa, captured protein HNRNPUL1.
[15] abbreviates: HeLa, protein CLTC (ISOFORM 1 OF CLATHRIN HEAVY CHAIN 1).

Read-outs that look alike come from different tables or passages of the source.

T4 sequence (Q9BVS4 whole entry): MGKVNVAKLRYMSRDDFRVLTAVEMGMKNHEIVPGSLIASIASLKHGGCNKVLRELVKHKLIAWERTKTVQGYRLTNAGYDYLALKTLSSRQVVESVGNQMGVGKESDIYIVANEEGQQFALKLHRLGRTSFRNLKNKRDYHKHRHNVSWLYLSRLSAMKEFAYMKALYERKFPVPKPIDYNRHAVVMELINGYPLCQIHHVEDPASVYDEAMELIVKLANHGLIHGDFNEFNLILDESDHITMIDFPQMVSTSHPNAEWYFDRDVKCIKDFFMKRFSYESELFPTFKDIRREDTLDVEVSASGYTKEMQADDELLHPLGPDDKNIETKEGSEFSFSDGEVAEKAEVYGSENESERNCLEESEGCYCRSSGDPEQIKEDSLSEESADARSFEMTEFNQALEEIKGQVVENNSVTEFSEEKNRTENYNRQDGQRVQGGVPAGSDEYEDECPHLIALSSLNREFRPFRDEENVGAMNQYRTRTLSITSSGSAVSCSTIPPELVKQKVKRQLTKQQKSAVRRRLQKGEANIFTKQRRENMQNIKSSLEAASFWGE
T1 sequence (P32929 whole entry): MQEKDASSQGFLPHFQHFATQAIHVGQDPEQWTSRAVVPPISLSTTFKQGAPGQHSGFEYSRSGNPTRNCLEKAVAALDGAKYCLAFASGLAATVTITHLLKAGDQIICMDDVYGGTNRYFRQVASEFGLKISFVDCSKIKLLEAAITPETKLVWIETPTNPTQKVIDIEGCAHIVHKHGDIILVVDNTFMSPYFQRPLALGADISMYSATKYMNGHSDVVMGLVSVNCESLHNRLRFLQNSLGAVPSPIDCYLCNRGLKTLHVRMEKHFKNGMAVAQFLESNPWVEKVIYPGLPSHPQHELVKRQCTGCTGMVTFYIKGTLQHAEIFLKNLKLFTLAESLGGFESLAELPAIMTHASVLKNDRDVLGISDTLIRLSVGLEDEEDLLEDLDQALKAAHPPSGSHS
T10 sequence (Q00610 whole entry): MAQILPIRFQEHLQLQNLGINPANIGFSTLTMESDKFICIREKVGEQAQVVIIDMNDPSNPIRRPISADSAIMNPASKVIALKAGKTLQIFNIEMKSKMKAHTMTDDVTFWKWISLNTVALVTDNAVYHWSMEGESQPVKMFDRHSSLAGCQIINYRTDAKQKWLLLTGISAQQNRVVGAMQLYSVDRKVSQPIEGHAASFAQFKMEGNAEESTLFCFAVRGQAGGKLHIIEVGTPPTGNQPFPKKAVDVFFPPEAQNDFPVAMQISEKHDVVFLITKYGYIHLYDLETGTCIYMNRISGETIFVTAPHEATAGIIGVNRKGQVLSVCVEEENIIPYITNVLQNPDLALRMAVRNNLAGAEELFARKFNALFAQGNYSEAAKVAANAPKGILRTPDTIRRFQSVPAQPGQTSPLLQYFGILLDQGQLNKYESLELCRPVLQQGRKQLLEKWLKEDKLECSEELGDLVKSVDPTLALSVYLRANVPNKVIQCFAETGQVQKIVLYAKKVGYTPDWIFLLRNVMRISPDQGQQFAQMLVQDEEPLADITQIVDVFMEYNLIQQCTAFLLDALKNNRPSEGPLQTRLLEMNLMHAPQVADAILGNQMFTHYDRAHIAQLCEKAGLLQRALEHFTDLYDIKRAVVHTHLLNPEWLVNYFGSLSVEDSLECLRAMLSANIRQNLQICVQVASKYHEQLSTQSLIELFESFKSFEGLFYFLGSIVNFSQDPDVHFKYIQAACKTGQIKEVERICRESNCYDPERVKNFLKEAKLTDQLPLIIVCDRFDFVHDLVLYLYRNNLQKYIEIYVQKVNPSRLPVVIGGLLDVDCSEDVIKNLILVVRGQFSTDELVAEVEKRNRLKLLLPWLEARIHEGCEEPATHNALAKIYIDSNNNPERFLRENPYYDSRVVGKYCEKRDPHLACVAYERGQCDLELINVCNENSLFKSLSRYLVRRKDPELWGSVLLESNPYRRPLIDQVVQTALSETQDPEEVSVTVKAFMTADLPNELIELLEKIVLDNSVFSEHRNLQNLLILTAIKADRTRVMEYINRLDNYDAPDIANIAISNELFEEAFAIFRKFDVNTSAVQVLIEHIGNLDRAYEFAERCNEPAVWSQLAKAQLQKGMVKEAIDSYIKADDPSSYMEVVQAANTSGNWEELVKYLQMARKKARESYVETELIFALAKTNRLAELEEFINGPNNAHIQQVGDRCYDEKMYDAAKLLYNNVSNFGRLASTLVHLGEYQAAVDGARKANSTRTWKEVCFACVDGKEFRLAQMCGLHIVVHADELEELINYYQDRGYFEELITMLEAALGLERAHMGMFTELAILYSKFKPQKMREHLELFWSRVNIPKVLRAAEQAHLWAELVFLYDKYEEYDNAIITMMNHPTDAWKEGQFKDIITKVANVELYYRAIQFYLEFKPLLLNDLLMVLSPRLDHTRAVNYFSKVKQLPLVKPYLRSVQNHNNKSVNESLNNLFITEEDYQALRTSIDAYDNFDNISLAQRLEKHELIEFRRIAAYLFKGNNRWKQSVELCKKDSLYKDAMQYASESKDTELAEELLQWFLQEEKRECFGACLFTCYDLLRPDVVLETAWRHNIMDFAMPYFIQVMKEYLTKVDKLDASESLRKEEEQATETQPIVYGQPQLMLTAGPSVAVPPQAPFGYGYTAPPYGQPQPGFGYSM
T11 sequence (Q15436 whole entry): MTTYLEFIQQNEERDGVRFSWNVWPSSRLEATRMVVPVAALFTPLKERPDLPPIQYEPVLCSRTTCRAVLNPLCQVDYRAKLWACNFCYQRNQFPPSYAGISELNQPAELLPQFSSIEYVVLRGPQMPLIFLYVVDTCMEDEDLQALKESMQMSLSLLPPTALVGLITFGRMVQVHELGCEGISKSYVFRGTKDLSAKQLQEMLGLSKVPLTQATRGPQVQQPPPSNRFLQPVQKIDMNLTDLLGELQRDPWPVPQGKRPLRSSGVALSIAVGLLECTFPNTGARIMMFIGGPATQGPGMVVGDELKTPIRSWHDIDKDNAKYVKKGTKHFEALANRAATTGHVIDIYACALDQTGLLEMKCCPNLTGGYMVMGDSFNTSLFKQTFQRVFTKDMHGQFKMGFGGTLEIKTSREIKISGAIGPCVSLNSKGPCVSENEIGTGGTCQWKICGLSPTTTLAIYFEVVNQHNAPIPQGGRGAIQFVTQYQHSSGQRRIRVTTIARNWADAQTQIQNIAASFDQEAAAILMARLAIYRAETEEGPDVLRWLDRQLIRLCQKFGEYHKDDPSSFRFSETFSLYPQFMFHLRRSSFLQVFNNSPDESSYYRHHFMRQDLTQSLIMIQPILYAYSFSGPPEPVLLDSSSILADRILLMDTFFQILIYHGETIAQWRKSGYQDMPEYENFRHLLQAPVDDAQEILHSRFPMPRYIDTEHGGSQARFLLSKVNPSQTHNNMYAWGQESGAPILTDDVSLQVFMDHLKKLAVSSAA
T3 sequence (Q16637 whole entry): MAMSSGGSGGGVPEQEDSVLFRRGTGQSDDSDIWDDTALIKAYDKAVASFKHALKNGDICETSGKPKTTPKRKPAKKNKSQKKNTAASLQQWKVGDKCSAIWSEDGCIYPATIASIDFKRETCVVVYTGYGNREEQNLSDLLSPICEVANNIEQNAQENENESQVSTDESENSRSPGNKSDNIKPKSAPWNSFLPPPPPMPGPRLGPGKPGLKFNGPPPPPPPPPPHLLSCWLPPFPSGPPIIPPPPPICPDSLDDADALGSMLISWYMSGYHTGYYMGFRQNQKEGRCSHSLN
T8 sequence (Q15046 whole entry): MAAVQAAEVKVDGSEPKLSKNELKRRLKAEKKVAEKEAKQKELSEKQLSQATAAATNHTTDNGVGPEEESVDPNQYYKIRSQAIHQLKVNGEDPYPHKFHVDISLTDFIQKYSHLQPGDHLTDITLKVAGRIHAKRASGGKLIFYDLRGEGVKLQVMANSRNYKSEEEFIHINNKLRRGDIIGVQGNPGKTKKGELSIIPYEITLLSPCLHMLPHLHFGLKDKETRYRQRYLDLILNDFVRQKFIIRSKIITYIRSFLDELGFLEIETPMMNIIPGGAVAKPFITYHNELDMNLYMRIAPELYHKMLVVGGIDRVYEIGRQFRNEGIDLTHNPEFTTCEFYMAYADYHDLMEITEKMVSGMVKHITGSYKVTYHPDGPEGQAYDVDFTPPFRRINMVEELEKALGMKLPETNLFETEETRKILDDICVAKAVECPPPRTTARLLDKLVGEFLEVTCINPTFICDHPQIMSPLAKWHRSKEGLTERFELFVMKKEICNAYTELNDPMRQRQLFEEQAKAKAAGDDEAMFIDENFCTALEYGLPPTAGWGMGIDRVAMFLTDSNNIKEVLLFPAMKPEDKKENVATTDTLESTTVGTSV

On to `Nc1nc2cccc(-c3ccccc3)c2n1Cc1ccc(Cl)c(Cl)c1` [compound 3], for which the “fold changes relative to vehicle control” value in [1] (protein CTH, HeLa) is listed as 0.91; in experiment [2] (protein AKR1B1, HeLa), 0.8; in experiment [3] (protein SMN1, HeLa), 0.98; in experiment [4] (captured protein RIOK2, HeLa), 0.95; in experiment [5] (setting [13]), 1.09 fold; in experiment [6] (protein PSMB3, HeLa), 0.92. The “fold changes relative to vehicle control” value in experiment [7] (protein PPA2, HeLa) worked out at 0.97; in experiment [8] (protein KARS, HeLa), 1.13; in [9] (protein HNRNPUL1, HeLa) it was 0.89; in [10] (protein CLTC, HeLa) it was 1.2; in experiment [11] (HeLa, protein SEC23A) it was 1.04; in [12] (protein DCTN1, HeLa) it was 1.1.

Take `NCCOCCOCC(=O)Nc1nc2ncc(CNc3ccc(C(=O)NC(CCC(=O)O)C(=O)O)cc3)nc2c(=O)[nH]1` (stereo not drawn) [compound 6]: the “fold changes relative to vehicle control” value in experiment [1] (protein CTH, HeLa) worked out at 0.95; in [2] (HeLa, protein AKR1B1), 1.2; in experiment [3] (HeLa, protein SMN1), 1.16; in [4] (HeLa, protein RIOK2), 0.82; in [5] (protein ST13, HeLa) it was 1.3; in experiment [6] (HeLa, protein PSMB3) it was 1.12. Moreover, the “fold changes relative to vehicle control” value in experiment [7] (HeLa, protein PPA2) amounted to 1.24; in experiment [8] (HeLa, captured protein KARS) it was 1.04; in experiment [9] (setting [14]), 1.05; in experiment [10] (setting [15]), 1.11; in experiment [11] (HeLa, protein SEC23A), 0.89; in experiment [12] (protein DCTN1, HeLa), 1.32.

Consider `Nc1nc2[nH]cc(CCc3ccc(C(=O)N[C@@H](CCC(=O)O)C(=O)O)cc3)c2c(=O)[nH]1` [PTX, pemetrexed], for which the “fold changes relative to vehicle control” value in experiment [1] is 0.85; in experiment [2], 1.22; in [3] it was 0.99; in [4] it was 0.33; in experiment [5], 1.12; in experiment [6], 0.99. For the same compound, the “fold changes relative to vehicle control” value turned out to be 1.05 in experiment [7]; 0.96 in [8]; 1.04 in [9]; 1.24 in experiment [10]; 0.94 in experiment [11]; 1.17 in [12].

Regarding `Nc1nc2c(c(=O)[nH]1)N(C=O)C(CNc1ccc(C(=O)N[C@@H](CCC(=O)O)C(=O)O)cc1)CN2` (stereo partly drawn) [LEU, leucovorin], the “fold changes relative to vehicle control” value is listed as 0.82 in experiment [1] (protein CTH, HeLa); 1.1 in experiment [2] (HeLa, protein AKR1B1); 0.94 in experiment [3] (HeLa, protein SMN1); 0.84 in experiment [4] (HeLa, protein RIOK2); 0.98 in experiment [5] (protein ST13, HeLa); 1.13 in [6] (HeLa, protein PSMB3). Moreover, the “fold changes relative to vehicle control” value is recorded as 1.16 in [7] (HeLa, protein PPA2); 0.91 in experiment [8] (HeLa, captured protein KARS); 0.99 in experiment [9] (setting [14]); 1.27 in experiment [10] (setting [15]); 0.94 in experiment [11] (HeLa, protein SEC23A); 1.14 in experiment [12] (protein DCTN1, HeLa).

For the compound `CCCCCCOc1ccc(Cc2cnc(N)nc2N)cc1` [compound 1], the “fold changes relative to vehicle control” value in experiment [1] (protein CTH, HeLa) is 0.86; in experiment [2] (protein AKR1B1, HeLa), 1.12; in [3] (protein SMN1, HeLa), 1; in [4] (captured protein RIOK2, HeLa) it was 0.94; in [5] (setting [13]), 1.44 fold; in [6] (protein PSMB3, HeLa), 1.13. Besides, the “fold changes relative to vehicle control” value was found to be 1.04 in experiment [7] (protein PPA2, HeLa); 0.74 in experiment [8] (protein KARS, HeLa); 0.83 in [9] (protein HNRNPUL1, HeLa); 0.83 in experiment [10] (protein CLTC, HeLa); 1.1 in experiment [11] (HeLa, protein SEC23A); 1.18 in experiment [12] (protein DCTN1, HeLa).

In the case of `NCCCNc1ccc(C(=O)NC(CCC(=O)O)C(=O)O)cc1` (stereo not drawn) [compound 7], the “fold changes relative to vehicle control” value in [1] (protein CTH, HeLa) is recorded as 0.87; in [2] (HeLa, protein AKR1B1) it was 0.95; in experiment [3] (HeLa, protein SMN1) it was 0.97; in experiment [4] (HeLa, protein RIOK2) it was 0.87; in experiment [5] (protein ST13, HeLa), 1.04; in experiment [6] (HeLa, protein PSMB3), 0.92. In addition, the “fold changes relative to vehicle control” value in experiment [7] (HeLa, protein PPA2) turned out to be 1.02; in [8] (HeLa, captured protein KARS), 1.07; in [9] (setting [14]) it was 1.07; in experiment [10] (setting [15]), 1.18; in experiment [11] (HeLa, protein SEC23A), 1.1; in experiment [12] (protein DCTN1, HeLa), 1.03.

For `CCCCCCOc1cccc(Cc2cnc(N)nc2N)c1` [compound 2], the “fold changes relative to vehicle control” value is 1.43 in [1] (protein CTH, HeLa); 1.7 in [2] (protein AKR1B1, HeLa); 1.09 in [3] (protein SMN1, HeLa); 0.95 in experiment [4] (captured protein RIOK2, HeLa); 2.63 fold in [5] (setting [13]); 1.53 in experiment [6] (protein PSMB3, HeLa). Besides, the “fold changes relative to vehicle control” value in experiment [7] (protein PPA2, HeLa) was found to be 1.59; in experiment [8] (protein KARS, HeLa), 1.12; in experiment [9] (protein HNRNPUL1, HeLa), 0.86; in experiment [10] (protein CLTC, HeLa) it was 1.07; in experiment [11] (HeLa, protein SEC23A), 1.07; in experiment [12] (protein DCTN1, HeLa), 1.27.
